Experimental data from patent US20260001792A1, “METHOD FOR PRODUCING SLIME-SUPPRESSING AUXILIARY AGENT FOR REVERSE OSMOSIS MEMBRANE, SLIME-SUPPRESSING AUXILIARY AGENT FOR REVERSE OSMOSIS MEMBRANE, AND WATER TREATMENT METHOD” (ORGANO CORPORATION, priority 2022, published 2026).
Values belong to the compound of their own block, whether it stands above or below them.

Assays:
[1] = Effects on membrane: flux and EC rejection rate before/after contact with agent
[2] = Effect of amount added of iodide ions on oxidation-reduction potential (ORP); type: physicochemical; conditions: sodium hypochlorite 1 mg/L as Cl2, stirred 3 minutes after potassium iodide addition
Procedure: A sodium hypochlorite aqueous solution was added to ultrapure water prepared with a prescribed pH value in sufficient amount to provide 1 mg/L as Cl2, potassium iodide was then added to the solution and stirred for 3 minutes, and the oxidation-reduction potential (ORP) was then measured. […] The oxidation-reduction potential (ORP) was measured using an ORP meter (RM-2oP) manufactured by DKK-TOA Corporation.

Flux after contact ([1]; ESPA2, pH 7, after contact at CT value 30,000): 4.1 m/(d · MPa)
Flux before contact ([1]; ESPA2, pH 7, baseline before contact with agent): 2.0 m/(d · MPa)
SMILES: OCl [NaClO, sodium hypochlorite]

ORP ([2]; pH 4): 837 mV
SMILES: [Na+].[O-]Cl [Reference Example 8, sodium hypochlorite]

ORP ([2]; pH 7): 638 mV
SMILES: [Na+].[O-]Cl [Reference Example 10, sodium hypochlorite]

ORP ([2]; pH 10): 359 mV
SMILES: [Na+].[O-]Cl [Reference Example 12, sodium hypochlorite]
